Reference: publication PMC11823594, “Durlobactam in combination with β-lactams to combat Mycobacterium abscessus” (Antimicrobial Agents and Chemotherapy, 2024)
“Also recorded” adds a separate entry of the source. Read-outs that look alike come from different tables or passages of the source.

What was measured:
LDT5 = LDT5 (Mycobacterium abscessus, UniProt B1MM58); assay: Mass spectrometry of covalent adduct formation; type: binding; settings: protein:drug 1:20, 2 h; mass accuracy ±5 Da; (−) = no change
Sequence of LDT5 (B1MM58 entry or part of it): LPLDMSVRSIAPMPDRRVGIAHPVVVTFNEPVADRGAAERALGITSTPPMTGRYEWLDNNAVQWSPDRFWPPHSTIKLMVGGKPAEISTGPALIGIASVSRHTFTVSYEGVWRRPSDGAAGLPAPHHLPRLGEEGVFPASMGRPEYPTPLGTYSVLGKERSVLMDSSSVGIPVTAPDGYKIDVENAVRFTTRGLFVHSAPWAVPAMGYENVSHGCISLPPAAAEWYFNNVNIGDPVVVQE
Protocol: (§1) Truncated sequences of LDT1-5, DDC, PBP B, and PBP-lipo (Δ1–41) were generated by Celtek Biosciences and cloned into the pET28(a) + vector with a tobacco etch virus (TEV) protease cleavage site before the start codon. Clones were transformed into Escherichia coli BL21 (DE3) and grown to an OD600 of 0.6–0.8. […] Cell pellets were collected and stored at −20°C overnight, then resuspended in a buffer containing 50 mM Tris (pH 8.0), 400 mM sodium chloride, and 1 mM Tris (2-carboxyethyl) phosphine hydrochloride (TCEP), followed by sonication and centrifugation. The supernatant was purified using a His Prep FF 16/10 column (GE Healthcare) and eluted with 500 mM imidazole. Eluted protein was dialyzed overnight at 4°C in a buffer with 50 mM Tris (pH 8.0), 150 mM sodium chloride, and 0.5 mM TCEP in the presence of His-tagged TEV protease. To remove the His tag, the mixture was passed over the His Prep FF 16/10 column again.
(§2) The purified proteins listed above were incubated at room temperature with β-lactams or BLIs at a molar ratio of 1:20 for 2 h. The reactions were then quenched with acetonitrile and diluted to 1 mL with 0.1% formic acid in water. Samples were analyzed using a quadrupole time-of-flight (Q-TOF) Waters Synapt-G2-Si electrospray ionization mass spectrometer (ESI-MS) and a Waters Acquity H class ultra-performance liquid chromatography (UPLC) system, equipped with a BEH C18 1.7 µm column (2.1 × 50 mm). The MS was tuned with the following settings: capillary voltage set at 3 kV, sampling cone at 35 V, source offset at 35, source temperature of 100°C, desolvation temperature of 500°C, cone gas flow rate at 100 L/h, desolvation gas flow rate at 800 L/h, and nebulizer set at 6.0. The mobile phases consisted of 0.1% formic acid in water and 0.1% formic acid in 100% acetonitrile, with gradient elution from 10% to 90% of […] over 11 min. The system’s mass accuracy was ±5 Da.

DDC = DDC (Mycobacteroides abscessus, UniProt B1MDJ1); assay: Mass spectrometry of covalent adduct formation; type: binding; settings: protein:drug 1:20, 2 h; mass accuracy ±5 Da; (−) = no change
Sequence of DDC (B1MDJ1 entry or part of it): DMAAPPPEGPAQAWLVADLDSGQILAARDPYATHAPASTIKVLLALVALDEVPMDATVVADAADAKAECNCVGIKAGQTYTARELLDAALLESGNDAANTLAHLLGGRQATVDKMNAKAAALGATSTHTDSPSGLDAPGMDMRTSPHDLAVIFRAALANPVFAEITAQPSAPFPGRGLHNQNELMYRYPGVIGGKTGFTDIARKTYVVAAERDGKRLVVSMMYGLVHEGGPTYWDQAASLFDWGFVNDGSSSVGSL
Protocol: as §1, §2

[1] = test system: Mycobacterium abscessus ATCC 19977 strain; assay: Morphological changes by flow cytometry and confocal microscopy; type: cell-based; settings: clinically relevant unbound concentrations (fCss,ave), 24 h
Protocol: Flow cytometry was employed to evaluate morphological changes in individual bacterial cells following PBP-lipo inactivation after 24 h of β-lactam treatment. The bacterial cells were stained using the BacLight kit L7012 (Thermo Fisher Scientific, Waltham, MA), containing SYTO 9 and propidium iodide (PI). Analysis was performed using a CytoFLEX flow cytometer (Beckman Coulter, CA), with data processed using CytExpert software.
Bacterial morphological changes resulting from PBP-lipo inactivation were investigated using an ImageXpress Micro Confocal Microscope (Molecular Devices, CA). The staining procedures applied to the samples mirrored those used for flow cytometry. Stained bacterial cells were placed in optically clear flat-bottom 96-well plates, and observations were conducted at 60× magnification. Cell length measurements were obtained through automated image analysis using MetaXpress 6 software.

PBP-lipo = target: T1, PBP-lipo (Mycobacteroides abscessus, UniProt B1MDC3); assay: Bocillin-FL binding assay; settings: 2 h incubation, 1:10 molar ratio
T1 construct: made in house; host or cells: Escherichia coli BL21 (DE3)
T1 sequence (B1MDC3 entry or part of it): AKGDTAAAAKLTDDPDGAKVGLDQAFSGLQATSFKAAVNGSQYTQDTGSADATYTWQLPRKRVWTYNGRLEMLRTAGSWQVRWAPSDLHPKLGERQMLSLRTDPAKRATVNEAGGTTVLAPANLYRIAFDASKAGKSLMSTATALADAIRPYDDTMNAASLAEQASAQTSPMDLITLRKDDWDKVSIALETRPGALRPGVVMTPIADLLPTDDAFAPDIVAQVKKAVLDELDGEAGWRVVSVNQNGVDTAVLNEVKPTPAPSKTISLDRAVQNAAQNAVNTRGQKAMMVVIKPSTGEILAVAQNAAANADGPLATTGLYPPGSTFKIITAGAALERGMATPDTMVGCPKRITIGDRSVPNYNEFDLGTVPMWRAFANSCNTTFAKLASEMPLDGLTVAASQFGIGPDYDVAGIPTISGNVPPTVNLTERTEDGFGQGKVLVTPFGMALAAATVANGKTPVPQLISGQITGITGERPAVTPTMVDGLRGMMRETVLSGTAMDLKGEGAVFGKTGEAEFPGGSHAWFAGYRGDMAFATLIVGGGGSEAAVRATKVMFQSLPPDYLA
Protocol: To analyze the binding of PBP-lipo with β-lactams or BLIs, purified PBP-lipo (4 µg) was incubated with β-lactams or BLIs at a 1:10 molar ratio in a buffer containing 10 mM sodium phosphate (pH 7.4) and 150 mM NaCl. The incubation was carried out for 2 h at room temperature. After the initial incubation, 1 µM Bocillin FL was added to the reaction mixture. The incubation was continued for an additional 3–4 h at 37°C. After incubation, the samples were boiled to denature the proteins. The samples were then subjected to SDS-PAGE. The PBP-lipo:Bocillin complexes were visualized by fluorescence analysis at a wavelength of 488 nm using an Azure 300 gel imaging system. The intensity of the PBP-lipo:Bocillin complex bands was analyzed using GelAnalyzer software. The intensity of the band for PBP-lipo alone (without β-lactams) was set to 1 as the highest intensity. The intensity of each band for PBP-lipo incubated with β-lactams was then normalized by dividing by the intensity of the band for PBP-lipo alone.

LDT3 = LDT3 (Mycobacterium abscessus, UniProt B1MHQ4); assay: Mass spectrometry of covalent adduct formation; type: binding; settings: protein:drug 1:20, 2 h; mass accuracy ±5 Da; (−) = no change
Sequence of LDT3 (B1MHQ4 entry or part of it): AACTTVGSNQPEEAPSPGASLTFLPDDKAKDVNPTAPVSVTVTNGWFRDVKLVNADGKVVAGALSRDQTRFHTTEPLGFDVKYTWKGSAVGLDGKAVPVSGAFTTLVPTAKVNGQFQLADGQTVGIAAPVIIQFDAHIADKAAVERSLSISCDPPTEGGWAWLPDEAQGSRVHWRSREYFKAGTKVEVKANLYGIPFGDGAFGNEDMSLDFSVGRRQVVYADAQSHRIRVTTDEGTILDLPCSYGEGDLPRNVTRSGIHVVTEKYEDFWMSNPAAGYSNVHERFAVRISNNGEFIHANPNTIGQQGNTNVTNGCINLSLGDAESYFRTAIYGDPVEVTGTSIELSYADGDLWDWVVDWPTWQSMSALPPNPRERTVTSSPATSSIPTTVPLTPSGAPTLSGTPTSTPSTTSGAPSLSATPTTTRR
Protocol: (§3) Truncated sequences of LDT1-5, DDC, PBP B, and PBP-lipo (Δ1–41) were generated by Celtek Biosciences and cloned into the pET28(a) + vector with a tobacco etch virus (TEV) protease cleavage site before the start codon. Clones were transformed into Escherichia coli BL21 (DE3) and grown to an OD600 of 0.6–0.8. Protein expression was induced with 0.25 mM isopropyl β-d-1-thiogalactopyranoside (IPTG) and incubated for 18 h at 18°C. Cell pellets were collected and stored at −20°C overnight, then resuspended in a buffer containing 50 mM Tris (pH 8.0), 400 mM sodium chloride, and 1 mM Tris (2-carboxyethyl) phosphine hydrochloride (TCEP), followed by sonication and centrifugation. The supernatant was purified using a His Prep FF 16/10 column (GE Healthcare) and eluted with 500 mM imidazole. Eluted protein was dialyzed overnight at 4°C in a buffer with 50 mM Tris (pH 8.0), 150 mM sodium chloride, and 0.5 mM TCEP in the presence of His-tagged TEV protease. To remove the His tag, the mixture was passed over the His Prep FF 16/10 column again.
as §2

LDT2 = LDT2 (Mycobacterium abscessus, UniProt B1MMQ4); assay: Mass spectrometry of covalent adduct formation; type: binding; settings: protein:drug 1:20, 2 h; mass accuracy ±5 Da; (−) = no change
Sequence of LDT2 (B1MMQ4 entry or part of it): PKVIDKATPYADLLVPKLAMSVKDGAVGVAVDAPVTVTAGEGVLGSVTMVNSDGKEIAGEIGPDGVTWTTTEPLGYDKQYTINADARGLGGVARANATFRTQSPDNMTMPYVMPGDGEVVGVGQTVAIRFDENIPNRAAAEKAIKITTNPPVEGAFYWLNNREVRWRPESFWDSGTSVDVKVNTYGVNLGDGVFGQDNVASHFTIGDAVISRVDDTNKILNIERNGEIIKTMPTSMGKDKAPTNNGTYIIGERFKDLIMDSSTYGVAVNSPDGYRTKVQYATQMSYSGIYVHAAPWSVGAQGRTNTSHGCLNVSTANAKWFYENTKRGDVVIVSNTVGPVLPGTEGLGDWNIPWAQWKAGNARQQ
Protocol: as §3, §2

BlaMab = BlaMab (Mycobacterium abscessus, UniProt B1MCI3); assay: Ki,app for the β-lactamase; type: biochemical
Sequence of BlaMab (B1MCI3 entry or part of it): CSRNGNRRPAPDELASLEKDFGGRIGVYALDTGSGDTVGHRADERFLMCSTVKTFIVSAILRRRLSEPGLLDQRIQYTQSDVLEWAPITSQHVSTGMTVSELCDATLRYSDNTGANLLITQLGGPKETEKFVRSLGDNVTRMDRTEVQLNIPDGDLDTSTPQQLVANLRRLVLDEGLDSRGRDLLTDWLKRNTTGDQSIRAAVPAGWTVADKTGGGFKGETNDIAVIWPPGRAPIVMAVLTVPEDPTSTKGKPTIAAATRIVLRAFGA

LDT1 = LDT1 (Mycobacterium abscessus, UniProt B1MDC1); assay: Mass spectrometry of covalent adduct formation; type: binding; settings: protein:drug 1:20, 2 h; mass accuracy ±5 Da; (−) = no change
Sequence of LDT1 (B1MDC1 entry or part of it): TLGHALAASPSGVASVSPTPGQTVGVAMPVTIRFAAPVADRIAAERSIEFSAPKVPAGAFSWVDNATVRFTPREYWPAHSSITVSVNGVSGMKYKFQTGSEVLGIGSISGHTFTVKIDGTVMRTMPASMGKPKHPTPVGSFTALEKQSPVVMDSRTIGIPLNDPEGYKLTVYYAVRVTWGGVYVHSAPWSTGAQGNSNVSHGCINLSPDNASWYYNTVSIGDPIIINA
Protocol: as §1, §2

Mab ATCC 19977 = assay: Static drug-concentration time-kill (SCTK) assay with CART analysis; type: cell-based, Mycobacterium abscessus; settings: clinically achievable concentrations, over 10 days; AVI 4 mg/L; DUR 12 mg/L + SUL 7 mg/L
[2] = read-out: Ki,app BlaMab (converted)

SMILES | Observed MW (+ change in mw), LDT5 (28,220) (LDT5) | Observed MW (+ change in mw), DDC (26,788) (DDC) | Morphological change of Mab cells [1] | Binding to PBP-lipo (Bocillin-FL competition) (PBP-lipo) | Observed MW (+ change in mw), LDT3 (44,795) (LDT3) | Observed MW (+ change in mw), LDT2 (39,216) (LDT2) | Ki (BlaMab; [2]) [µM] | Observed MW (+ change in mw), LDT1 (23,059) (LDT1) | Bacterial killing (log10 reduction) in time-kill (Mab ATCC 19977) | Ki (BlaMab; read-out: Ki,app BlaMab) [µM]
C[C@@H](O)[C@H]1C(=O)N2C(C(=O)O)=C(S[C@H]3CC[S@@+]([O-])C3)S[C@H]12 [Sulopenem, sulopenem] | 28,306 (+86) Da | 27,138 (+349) Da | filamentous shapes with an elongated cell length | demonstrated binding to PBP-lipo | 45,143 (+349) Da | 39,298 (+86) Da | – | – | – | –
C[C@@H](O)[C@H]1C(=O)N2C(C(=O)O)=C(SCCN=CN)C[C@H]12 [Imipenem, imipenem] | – | – | filamentous shapes with an elongated cell length | demonstrated binding to PBP-lipo | 44,794 (−) Da | 39,515 (+299) Da | 17 | – | – | –
CC1=C[C@@H]2CN(C(=O)N2OS(=O)(=O)O)[C@@H]1C(N)=O [Durlobactam, durlobactam] | 28,496 (+276) Da | 27,066 (+276) Da | filamentous shapes with an elongated cell length | demonstrated binding to PBP-lipo | 44,794 (−) Da | 39,492 (+278) Da | 0.00397 | 23,336 (+277) Da | ~ 2 log10 CFU/mL | –
CO/N=C(\C(=O)N[C@@H]1C(=O)N2C(C(=O)O)=C(COC(N)=O)CS[C@H]12)c1ccco1 [Cefuroxime, cefuroxime] | – | – | did not induce noticeable morphological changes | demonstrated binding to PBP-lipo | 44,794 (−) Da | 39,597 (+381) Da | – | 23,059 (−) Da | – | –
CC1(C)S[C@@H]2[C@H](NC(=O)[C@H](N)c3ccc(O)cc3)C(=O)N2[C@H]1C(=O)O [Amoxicillin, amoxicillin] | 28,220 (−) Da | – | does not induce any morphological changes | demonstrated binding to PBP-lipo | 44,794 (−) Da | – | – | 28,220 (−) Da | no killing effect | < 13.7
NC(=O)[C@@H]1CC[C@@H]2CN1C(=O)N2OS(=O)(=O)O [Avibactam, avibactam] | 28,220 (−) Da | – | did not induce noticeable morphological changes | demonstrated binding to PBP-lipo | 44,794 (−) Da | 39,482 (+266) Da | 0.3 | 23,325 (+265) Da | no effect on bacterial growth inhibition or killing; also recorded: no effect | –
C[C@@H](O)[C@H]1C(=O)N2C(C(=O)O)=C(SC3CN(C4=NCCS4)C3)[C@H](C)[C@H]12 [Tebipenem, tebipenem] | 28,220 (−) Da | 27,173 (+385) Da | – | – | 44,794 (−) Da | 39,602 (+386) Da | < 13 | 23,443 (+384) Da | – | –
